Data on one molecule can be found in patent US20180000727A1, “COMPOSITION AND METHODS TO IMPROVE STABILITY, DOSING, PHARMA[…] PRODUCT SHELF LIFE OF ENDOCANNABINOIDS, PHYTOCANNABINOIDS AND […] CA[…] BY NASAL INHAER” (priority 2015, published 2018).

The conditions of series [1]: oral administration; cited from earlier work.
For series [2] the following is noted: intranasally at 1.0 to 1.3 mg/kg in rats; cited from earlier work.
Series [3] can be described thus: Twelve months storage, THC degradation to Cannabinol by gas chromatography. Conditions: twelve months storage at −10 °C in darkness, 5 ml screw top bottles.
Description: Extract was concentrated by vacuum evaporation and percent of THC degradation quantitated by gas chromatograpy.

With `CCCCCc1cc(O)c2c(c1)OC(C)(C)[C@@H]1CCC(C)=C[C@@H]21` [THC, Delta-9-tetrahydrocannabinol], the “oral dose reaching the circulation unchanged” value in series [1] is listed as 10%. For the same molecule, in series [2], the “analgesic response, time post administration” value was 15 min and the “duration of analgesic response” value was 120 min. In series [3], the “percent degraded to Cannabinol” value turned out to be 22.6%.
